In US20180200257A1, “METHODS FOR THE TREATMENT OF INFLAMMATORY DISORDERS” (Galapagos NV, priority 2015, published 2018):

System: subjects with moderately to severely active RA who have an inadequate response to methotrexate (MTX)
Assay: Study 1 (add-on to MTX) - serum CRP values
Format: in vivo, human
Method: Double-blind, placebo-controlled add on study in subjects with moderately to severely active RA who have an inadequate response to methotrexate (MTX) (oral or parenteral).
595 subjects randomized to one of 6 dose regimens of Compound 1 (dosed as [Compound 1:HCl:3H2O]) (3 dose levels administered either once or twice daily) or placebo on top of each subject's stable dose of MTX.
Compound 1 (dosed as [Compound 1:HCl:3H2O]) is dosed for twelve weeks once daily (q.d.) (50 mg, 100 mg or 200 mg) or twice daily (b.i.d.) (25 mg, 50 mg or 100 mg); or placebo.
At Week 12, the subjects on placebo who have not achieved 20% improvement in swollen joint count (SJC66) and tender joint count (TJC68) are re-randomized automatically to receive Compound 1 (dosed as a [Compound 1:HCl:3H2O]) either at 100 mg q.d. or 50 mg b.i.d. doses in a blinded fashion; subjects on 50 mg q.d. who have not achieved 20% improvement in SJC66 and TJC68 will be assigned to 100 mg q.d. and subjects on 25 mg b.i.d. that have not achieved a 20% improvement in SJC66 and TJC68 will be assigned to 50 mg b.i.d. Subjects who switch treatment at week 12 are handled as if they discontinued at week 12 for the purpose of statistical analysis, whereas subjects in the other groups will maintain their randomized treatment until Week 24.
CRP determination is available at Quest Diagnostics, Clinical Trials, Quest House, 125-135 Staines Road, Hounslow, Middlesex, TW3 3JB, United Kingdom under Catalogue n#86140.
The determination of CRP is made using Immunoturbidimetric assay for the in vitro quantitative determination of CRP in human serum and plasma on Roche/Hitachi cobas c systems, wherein human CRP agglutinates with latex particles coated with monoclonal anti-CRP antibodies. The aggregates are determined turbidimetrically (Eda et al., 1998; Price et al., 1987).
Human serum and plasma samples CRP determination was done on a Roche/Hitachi Cobas c 301 c 501/502 system which automatically calculate the analyte concentration of each sample. Samples containing precipitates are centrifuged before performing the assay.
The machine parameters are listed in Table XCI and Table XCII below, and the results at 12 weeks v using either LOCF are shown in Table XCIII and below. The Hommel-corrected p-value for the pairwise comparisons of each group with placebo is shown.
The number of subjects (N) provided in each groups corresponds to the number of subjects starting the study in each group, and the CRP data reported below corresponds to the responding subjects continuing for the entire 24 weeks on their initial treatment course.

SMILES: O=C(Nc1nc2cccc(-c3ccc(CN4CCS(=O)(=O)CC4)cc3)n2n1)C1CC1 [Compound 1, cyclopropanecarboxylic acid {5-[4-(1,1-dioxo-thiomorpholin-4-ylmethyl)-phenyl]-[1,2,4]triazolo[1,5-a]pyridin-2-yl}-amide]
- CRP mean CFB mg/L (LOCF) (50 mg q.d., week 1, 12 weeks results): -7.95 mg/L
- CRP mean CFB mg/L (LOCF) (50 mg q.d., week 1, 24 weeks results): -7.95 mg/L
- CRP mean CFB mg/L (LOCF) (50 mg q.d., week 2, 12 weeks results): -8.23 mg/L
- CRP mean CFB mg/L (LOCF) (50 mg q.d., week 2, 24 weeks results): -8.23 mg/L
- CRP mean CFB mg/L (LOCF) (50 mg q.d., week 4, 12 weeks results): -10.18 mg/L
- CRP mean CFB mg/L (LOCF) (50 mg q.d., week 4, 24 weeks results): -10.18 mg/L
- CRP mean CFB mg/L (LOCF) (50 mg q.d., week 12, 12 weeks results): -13.15 mg/L
- CRP mean CFB mg/L (LOCF) (50 mg q.d., week 12, 24 weeks results): -13.15 mg/L
- CRP mean CFB mg/L (LOCF) (50 mg q.d., week 16, 24 weeks results): -13.55 mg/L
- CRP mean CFB mg/L (LOCF) (50 mg q.d., week 20, 24 weeks results): -13.12 mg/L
- CRP mean CFB mg/L (LOCF) (50 mg q.d., week 24, 24 weeks results): -15.22 mg/L
- CRP mean CFB mg/L (LOCF) (50 mg q.d., week 8, 12 weeks results): -12.02 mg/L
- CRP mean CFB mg/L (LOCF) (50 mg q.d., week 8, 24 weeks results): -12.02 mg/L
- CRP mean CFB mg/L (LOCF) (100 mg q.d., week 1, 12 weeks results): -11.02 mg/L
- CRP mean CFB mg/L (LOCF) (100 mg q.d., week 1, 24 weeks results): -11.02 mg/L
- CRP mean CFB mg/L (LOCF) (100 mg q.d., week 2, 12 weeks results): -12.94 mg/L
- CRP mean CFB mg/L (LOCF) (100 mg q.d., week 2, 24 weeks results): -12.94 mg/L
- CRP mean CFB mg/L (LOCF) (100 mg q.d., week 4, 12 weeks results): -13.18 mg/L
- CRP mean CFB mg/L (LOCF) (100 mg q.d., week 4, 24 weeks results): -13.18 mg/L
- CRP mean CFB mg/L (LOCF) (100 mg q.d., week 8, 24 weeks results): -12.48 mg/L
- CRP mean CFB mg/L (LOCF) (100 mg q.d., week 12, 12 weeks results): -13.57 mg/L
- CRP mean CFB mg/L (LOCF) (100 mg q.d., week 12, 24 weeks results): -13.57 mg/L
- CRP mean CFB mg/L (LOCF) (100 mg q.d., week 16, 24 weeks results): -11.66 mg/L
- CRP mean CFB mg/L (LOCF) (100 mg q.d., week 20, 24 weeks results): -14.50 mg/L
- CRP mean CFB mg/L (LOCF) (100 mg q.d., week 24, 24 weeks results): -14.89 mg/L
- CRP mean CFB mg/L (LOCF) (100 mg q.d., week 8, 12 weeks results): -12.48 mg/L
- CRP mean CFB mg/L (LOCF) (200 mg q.d., week 1, 12 weeks results): -17.06 mg/L
- CRP mean CFB mg/L (LOCF) (200 mg q.d., week 1, 24 weeks results): -17.06 mg/L
- CRP mean CFB mg/L (LOCF) (200 mg q.d., week 2, 12 weeks results): -17.51 mg/L
- CRP mean CFB mg/L (LOCF) (200 mg q.d., week 2, 24 weeks results): -17.51 mg/L
- CRP mean CFB mg/L (LOCF) (200 mg q.d., week 4, 12 weeks results): -17.94 mg/L
- CRP mean CFB mg/L (LOCF) (200 mg q.d., week 4, 24 weeks results): -17.94 mg/L
- CRP mean CFB mg/L (LOCF) (200 mg q.d., week 8, 24 weeks results): -17.22 mg/L
- CRP mean CFB mg/L (LOCF) (200 mg q.d., week 12, 12 weeks results): -17.24 mg/L
- CRP mean CFB mg/L (LOCF) (200 mg q.d., week 12, 24 weeks results): -17.24 mg/L
- CRP mean CFB mg/L (LOCF) (200 mg q.d., week 16, 24 weeks results): -20.38 mg/L
- CRP mean CFB mg/L (LOCF) (200 mg q.d., week 20, 24 weeks results): -17.89 mg/L
- CRP mean CFB mg/L (LOCF) (200 mg q.d., week 24, 24 weeks results): -15.57 mg/L
- CRP mean CFB mg/L (LOCF) (200 mg q.d., week 8, 12 weeks results): -17.22 mg/L
- CRP mean CFB mg/L (LOCF) (2 × 25 mg b.i.d., week 2, 12 weeks results): -10.06 mg/L
- CRP mean CFB mg/L (LOCF) (2 × 25 mg b.i.d., week 2, 24 weeks results): -10.06 mg/L
- CRP mean CFB mg/L (LOCF) (2 × 25 mg b.i.d., week 4, 12 weeks results): -7.72 mg/L
- CRP mean CFB mg/L (LOCF) (2 × 25 mg b.i.d., week 4, 24 weeks results): -7.72 mg/L
- CRP mean CFB mg/L (LOCF) (2 × 25 mg b.i.d., week 8, 12 weeks results): -10.94 mg/L
- CRP mean CFB mg/L (LOCF) (2 × 25 mg b.i.d., week 8, 24 weeks results): -10.94 mg/L
- CRP mean CFB mg/L (LOCF) (2 × 25 mg b.i.d., week 12, 12 weeks results): -10.26 mg/L
- CRP mean CFB mg/L (LOCF) (2 × 25 mg b.i.d., week 12, 24 weeks results): -10.26 mg/L
- CRP mean CFB mg/L (LOCF) (2 × 25 mg b.i.d., week 16, 24 weeks results): -12.55 mg/L
- CRP mean CFB mg/L (LOCF) (2 × 25 mg b.i.d., week 20, 24 weeks results): -12.20 mg/L
- CRP mean CFB mg/L (LOCF) (2 × 25 mg b.i.d., week 24, 24 weeks results): -11.68 mg/L
- CRP mean CFB mg/L (LOCF) (2 × 25 mg b.i.d., Week 1, 12 weeks results): -8.47 mg/L
- CRP mean CFB mg/L (LOCF) (2 × 25 mg b.i.d., Week 1, 24 weeks results): -8.47 mg/L
- CRP mean CFB mg/L (LOCF) (2 × 50 mg b.i.d., week 2, 12 weeks results): -11.03 mg/L
- CRP mean CFB mg/L (LOCF) (2 × 50 mg b.i.d., week 2, 24 weeks results): -11.03 mg/L
- CRP mean CFB mg/L (LOCF) (2 × 50 mg b.i.d., week 4, 12 weeks results): -13.28 mg/L
- CRP mean CFB mg/L (LOCF) (2 × 50 mg b.i.d., week 4, 24 weeks results): -13.28 mg/L
- CRP mean CFB mg/L (LOCF) (2 × 50 mg b.i.d., week 8, 12 weeks results): -13.25 mg/L
- CRP mean CFB mg/L (LOCF) (2 × 50 mg b.i.d., week 8, 24 weeks results): -13.25 mg/L
- CRP mean CFB mg/L (LOCF) (2 × 50 mg b.i.d., week 12, 12 weeks results): -12.97 mg/L
- CRP mean CFB mg/L (LOCF) (2 × 50 mg b.i.d., week 12, 24 weeks results): -12.97 mg/L
- CRP mean CFB mg/L (LOCF) (2 × 50 mg b.i.d., week 16, 24 weeks results): -12.57 mg/L
- CRP mean CFB mg/L (LOCF) (2 × 50 mg b.i.d., week 20, 24 weeks results): -13.16 mg/L
- CRP mean CFB mg/L (LOCF) (2 × 50 mg b.i.d., week 24, 24 weeks results): -11.96 mg/L
- CRP mean CFB mg/L (LOCF) (2 × 50 mg b.i.d., Week 1, 12 weeks results): -10.08 mg/L
- CRP mean CFB mg/L (LOCF) (2 × 50 mg b.i.d., Week 1, 24 weeks results): -10.08 mg/L
- CRP mean CFB mg/L (LOCF) (2 × 100 mg b.i.d., week 2, 12 weeks results): -19.69 mg/L
- CRP mean CFB mg/L (LOCF) (2 × 100 mg b.i.d., week 2, 24 weeks results): -19.69 mg/L
- CRP mean CFB mg/L (LOCF) (2 × 100 mg b.i.d., week 4, 12 weeks results): -20.64 mg/L
- CRP mean CFB mg/L (LOCF) (2 × 100 mg b.i.d., week 4, 24 weeks results): -20.64 mg/L
- CRP mean CFB mg/L (LOCF) (2 × 100 mg b.i.d., week 8, 12 weeks results): -21.32 mg/L
- CRP mean CFB mg/L (LOCF) (2 × 100 mg b.i.d., week 8, 24 weeks results): -21.32 mg/L
- CRP mean CFB mg/L (LOCF) (2 × 100 mg b.i.d., week 12, 12 weeks results): -20.54 mg/L
- CRP mean CFB mg/L (LOCF) (2 × 100 mg b.i.d., week 12, 24 weeks results): -20.54 mg/L
- CRP mean CFB mg/L (LOCF) (2 × 100 mg b.i.d., week 16, 24 weeks results): -21.34 mg/L
- CRP mean CFB mg/L (LOCF) (2 × 100 mg b.i.d., week 20, 24 weeks results): -20.80 mg/L
- CRP mean CFB mg/L (LOCF) (2 × 100 mg b.i.d., week 24, 24 weeks results): -20.82 mg/L
- CRP mean CFB mg/L (LOCF) (2 × 100 mg b.i.d., Week 1, 12 weeks results): -17.39 mg/L
- CRP mean CFB mg/L (LOCF) (2 × 100 mg b.i.d., Week 1, 24 weeks results): -17.39 mg/L
